Like-named read-outs stand apart in the source and are kept apart here.
Assay: Plasma pharmacokinetics after single oral dose of Δ8-THCV in MCT oil (LC-MS/MS, non-compartmental analysis)
Type: in vivo, human
Set-up: Clast (last quantifiable concentration): unit not given here
Conditions: for Clast (last quantifiable concentration) / tlast (time to last quantifiable concentration) / concentration at 0.5 h / concentration at 1 h / concentration at 2 h / concentration at 4 h / concentration at 6 h / concentration at 8 h / AUC(0-t) / Cmax / MRT / Tmax: plasma; for plasma concentration: Predose; for concentration at 0.5 h / concentration at 1 h / concentration at 2 h / concentration at 4 h / concentration at 6 h / concentration at 8 h / AUC(0-t) / Cmax / MRT / Tmax: human; for concentration at 0.5 h / concentration at 1 h / concentration at 2 h / concentration at 4 h / concentration at 6 h / concentration at 8 h: oral; for AUC(0-t) / Cmax / MRT / Tmax: po; for MRT: read-out: MRT (mean residence time); for Tmax: read-out: tmax
Procedure, shortened: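 Healthy participants received single oral Δ8-THCV in MCT oil (50 mg/mL; 12.5-200 mg, or placebo) after a high-fat, high-calorie breakfast, with ≥1-week washout. Plasma (K2EDTA) sampled predose and 0.5-8 h post-dose, assayed by validated LC-MS/MS including metabolites; PK by non-compartmental analysis, sub-LLOQ values set to 0.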

[1] = 100 mg single oral Δ8-THCV in MCT oil, Mean (±SD)
[2] = 100 mg single oral Δ8-THCV in MCT oil, Median (Range)
[3] = 200 mg single oral Δ8-THCV in MCT oil, Mean (±SD)
[4] = 200 mg single oral Δ8-THCV in MCT oil, Median (Range)
[5] = 12.5 mg, 12.5 mg Δ8-THCV dose, Mean (SD, %CV)
[6] = 12.5 mg, 12.5 mg Δ8-THCV dose, Median (IQ Range)
[7] = 25 mg, 25 mg Δ8-THCV dose, Mean (SD, %CV)
[8] = 25 mg, 25 mg Δ8-THCV dose, Median (IQ Range)
[9] = 50 mg, 50 mg Δ8-THCV dose, Mean (SD, %CV)
[10] = 50 mg, 50 mg Δ8-THCV dose, Median (IQ Range)
[11] = 100 mg, 100 mg Δ8-THCV dose, Mean (SD, %CV)
[12] = 100 mg, 100 mg Δ8-THCV dose, Median (IQ Range)
[13] = 200 mg, 200 mg Δ8-THCV dose, Mean (SD, %CV)
[14] = 200 mg, 200 mg Δ8-THCV dose, Median (IQ Range)
[15] = 100 mg, 100 mg single oral Δ8-THCV in MCT oil, Mean (±SD)
[16] = 100 mg, 100 mg single oral Δ8-THCV in MCT oil, Median (Range)
[17] = 200 mg, 200 mg single oral Δ8-THCV in MCT oil, Mean (±SD)
[18] = 200 mg, 200 mg single oral Δ8-THCV in MCT oil, Median (Range)

With `CCCc1cc(O)c2c(c1)OC(C)(C)[C@@H]1CCC(C)=C[C@@H]21` [Δ9-THCV, Δ9-tetrahydrocannabivarin] the “Clast (last quantifiable concentration)” value [1] was 1.1 (±0.5), the “tlast (time to last quantifiable concentration)” value (shortened to “tlast”) [1] was 4.8 (±1.5) and the “Clast (last quantifiable concentration)” value [2] was 0.8 (0.5–1.9). For the same molecule, the “tlast” value [2] was 5 (2–6), the “Clast (last quantifiable concentration)” value [3] was 1.5 (±1) and the “tlast” value [3] was 6.2 (±2.1). For the same molecule, the “Clast (last quantifiable concentration)” value [4] was 1.4 (0.5–4.1), the “tlast” value [4] was 6 (2–8) and the plasma concentration (12.5 mg Δ8-THCV dose, Mean (SD, %CV)) was 0 (±0, --) ng/mL. For the same molecule, the plasma concentration (12.5 mg Δ8-THCV dose, Median (IQ Range)) was 0 (0–0) ng/mL, the plasma concentration (25 mg Δ8-THCV dose, Mean (SD, %CV)) was 0 (±0, --) ng/mL and the plasma concentration (25 mg Δ8-THCV dose, Median (IQ Range)) was 0 (0–0) ng/mL. For the same molecule, the plasma concentration (50 mg Δ8-THCV dose, Mean (SD, %CV)) was 0 (±0, --) ng/mL, the plasma concentration (50 mg Δ8-THCV dose, Median (IQ Range)) was 0 (0–0) ng/mL and the plasma concentration (100 mg Δ8-THCV dose, Mean (SD, %CV)) was 0 (±0, --) ng/mL. The plasma concentration (100 mg Δ8-THCV dose, Median (IQ Range)) was 0 (0–0) ng/mL, the plasma concentration (200 mg Δ8-THCV dose, Mean (SD, %CV)) was 0 (±0, --) ng/mL and the plasma concentration (200 mg Δ8-THCV dose, Median (IQ Range)) was 0 (0–0) ng/mL. For the same molecule, the concentration at 0.5 h [5] was 0 ng/mL, the concentration at 0.5 h [6] was 0 ng/mL and the concentration at 1 h [5] was 0 ng/mL. For the same molecule, the concentration at 1 h [6] was 0 ng/mL, the concentration at 2 h [5] was 0 ng/mL and the concentration at 2 h [6] was 0 ng/mL. The concentration at 4 h [5] was 0 ng/mL, the concentration at 4 h [6] was 0 ng/mL and the concentration at 6 h [5] was 0 ng/mL. The concentration at 6 h [6] was 0 ng/mL, the concentration at 8 h [5] was 0 ng/mL and the concentration at 8 h [6] was 0 ng/mL. It also gave a concentration at 0.5 h [7] of 0 ng/mL, a concentration at 0.5 h [8] of 0 ng/mL and a concentration at 1 h [7] of 0 ng/mL. The concentration at 1 h [8] was 0 ng/mL, the concentration at 2 h [7] was 0 ng/mL and the concentration at 2 h [8] was 0 ng/mL. It also gave a concentration at 4 h [7] of 0 ng/mL, a concentration at 4 h [8] of 0 ng/mL and a concentration at 6 h [7] of 0 ng/mL. For the same molecule, the concentration at 6 h [8] was 0 ng/mL, the concentration at 8 h [7] was 0 ng/mL and the concentration at 8 h [8] was 0 ng/mL. For the same molecule, the concentration at 0.5 h [9] was 0 ng/mL, the concentration at 0.5 h [10] was 0 ng/mL and the concentration at 1 h [9] was 0 ng/mL. The concentration at 1 h [10] was 0 ng/mL, the concentration at 2 h [9] was 0 ng/mL and the concentration at 2 h [10] was 0 ng/mL. For the same molecule, the concentration at 4 h [9] was 0 ng/mL, the concentration at 4 h [10] was 0 ng/mL and the concentration at 6 h [9] was 0.1 ng/mL. It also gave a concentration at 6 h [10] of 0 ng/mL, a concentration at 8 h [9] of 0 ng/mL and a concentration at 8 h [10] of 0 ng/mL. The concentration at 0.5 h [11] was 0 ng/mL, the concentration at 0.5 h [12] was 0 ng/mL and the concentration at 1 h [11] was 0.1 ng/mL. The concentration at 1 h [12] was 0 ng/mL, the concentration at 2 h [11] was 0.1 ng/mL and the concentration at 2 h [12] was 0 ng/mL. The concentration at 4 h [11] was 0.3 ng/mL, the concentration at 4 h [12] was 0 ng/mL and the concentration at 6 h [11] was 0.3 ng/mL. It also gave a concentration at 6 h [12] of 0 ng/mL, a concentration at 8 h [11] of 0 ng/mL and a concentration at 8 h [12] of 0 ng/mL. For the same molecule, the concentration at 0.5 h [13] was 0 ng/mL, the concentration at 0.5 h [14] was 0 ng/mL and the concentration at 1 h [13] was 0 ng/mL. The concentration at 1 h [14] was 0 ng/mL, the concentration at 2 h [13] was 0.6 ng/mL and the concentration at 2 h [14] was 0 ng/mL. The concentration at 4 h [13] was 0.9 ng/mL, the concentration at 4 h [14] was 0.7 ng/mL and the concentration at 6 h [13] was 0.7 ng/mL. It also gave a concentration at 6 h [14] of 0.6 ng/mL, a concentration at 8 h [13] of 0.6 ng/mL and a concentration at 8 h [14] of 0 ng/mL. For the same molecule, the AUC(0-t) [15] was 1.4 ng·h/mL, the Cmax [15] was 1.1 ng/mL and the AUC(0-t) [16] was 1.2 ng·h/mL. It also gave a Cmax [16] of 0.9 ng/mL, an MRT [15] of 4.4 h and a Tmax [15] of 4.6 h. For the same molecule, the MRT [16] was 4.4 h, the Tmax [16] was 5 h and the AUC(0-t) [17] was 4.8 ng·h/mL. The Cmax [17] was 2 ng/mL, the AUC(0-t) [18] was 4.5 ng·h/mL and the Cmax [18] was 1.7 ng/mL. The MRT [17] was 4.5 h, the Tmax [17] was 4.9 h and the MRT [18] was 4.6 h. The Tmax [18] was 4 h, the “number of positive plasma samples” value (of 504 plasma samples from 15 participants after oral Δ8-THCV) was 42 and the “concentration in representative plasma sample” value (one subject after oral Δ8-THCV in MCT oil, Figure A1) was 2.4 ng/mL.

From article PMC11676667, “Pharmacokinetics of Oral Cannabinoid Δ8-Tetrahydrocannabivarin and Its Main Metabolites in Healthy Participants” (Pharmaceuticals, 2024)
